Patent US20100249083A1, “16,17-CARBOCYCLIC CONDENSED STEROID COMPOUNDS HAVING SELECTIVE ESTROGENIC ACTIVITY” (N.V. Organon, priority 2000, published 2010)

How the values were obtained:
[1] = system: ovariectomised (OVX) rats; experiment: Test for prevention of ovariectomy-induced bone loss in rats (anti-osteoporosis test); format: in vivo, rat; conditions: oral, 4 weeks, trabecular bone mineral density difference 40-60%
Excerpt: Ovariectomy of rats induces bone loss, which is due to estrogen deficiency. Administration of estrogenic compounds prevents this effect. The test is used to evaluate a compound for anti-osteoporotic activity in ovariectomised (OVX) rats. The effect on bone mass can be evaluated by peripheral Quantitative Computed Tomography (pQCT), or by quantitative analysis of X-ray pictures. Plasma osteocalcin and urinary deoxypyridinoline, calcium and phosphate gives information on bone metabolism. Increase of uterine weight and decrease of body and thymus weight reflect estrogenic effect.
Mature virgin 225-250 g female Wistar rats. Strain: Hsd/Cpd:Wu, SPF-bred by Harlan, CPB, Zeist, The Netherlands.
On day 1 of the experiment the rats are weighed and distributed over the cages in order of bodyweight, whereby the rat with the smallest bodyweight is placed in the first cage and the heaviest rat in the final cage. Treatments are randomised over the rats.
Sham-operation and ovariectomy are performed under ether anaesthesia. After recovery from the anaesthesia, within 24 h, vehicle, reference compound or test compound is administered once or twice daily for 4 weeks. […] Trabecular bone mineral density of the metaphyseal part of the femur (FBMDDIS mg/cm^3) is measured with a pQCT (peripheral Quantitative Computed Tomography machine; XCT 960A, Stratec, Birkenfeld, Germany). […]

[2] = biological target: T1, human estrogen receptor β (hERβ) (Homo sapiens, UniProt Q92731); experiment: Estrogenic agonistic transactivation assay, CHO cells with rat oxytocin promoter and luciferase reporter; format: cell-based; set-up: expressed in transfected cells; host or cells: CHO cells with rat oxytocin promoter and luciferase reporter; conditions: compared with estradiol; second value of Erα/Erβ pair
Excerpt: (§1) The estrogenic agonistic transactivation (potency ratio) of a test compound to stimulate the transactivation of the enzyme luciferase mediated via the estrogen receptors hERα or hERβ is compared with the standard estrogen estradiol. The antiestrogenic activity (potency ratio) of a test compound to inhibit the transactivation of the enzyme luciferase mediated via the estrogen receptors hERα or hERβ by the (17β)-estradiol is compared with the standard ICI 164.384 (=(7α,17β)-N-butyl-3,17-dihydroxy-N-methylestra-1,3,5(10)-triene-7-undecanamide).

[3] = biological target: T2, human estrogen receptor α (hERα) (Homo sapiens, UniProt P03372); experiment: as above; format: cell-based; set-up: expressed in transfected cells; host or cells: CHO cells with rat oxytocin promoter and luciferase reporter; conditions: compared with estradiol; first value of Erα/Erβ pair
T2 sequence (P03372 1-595): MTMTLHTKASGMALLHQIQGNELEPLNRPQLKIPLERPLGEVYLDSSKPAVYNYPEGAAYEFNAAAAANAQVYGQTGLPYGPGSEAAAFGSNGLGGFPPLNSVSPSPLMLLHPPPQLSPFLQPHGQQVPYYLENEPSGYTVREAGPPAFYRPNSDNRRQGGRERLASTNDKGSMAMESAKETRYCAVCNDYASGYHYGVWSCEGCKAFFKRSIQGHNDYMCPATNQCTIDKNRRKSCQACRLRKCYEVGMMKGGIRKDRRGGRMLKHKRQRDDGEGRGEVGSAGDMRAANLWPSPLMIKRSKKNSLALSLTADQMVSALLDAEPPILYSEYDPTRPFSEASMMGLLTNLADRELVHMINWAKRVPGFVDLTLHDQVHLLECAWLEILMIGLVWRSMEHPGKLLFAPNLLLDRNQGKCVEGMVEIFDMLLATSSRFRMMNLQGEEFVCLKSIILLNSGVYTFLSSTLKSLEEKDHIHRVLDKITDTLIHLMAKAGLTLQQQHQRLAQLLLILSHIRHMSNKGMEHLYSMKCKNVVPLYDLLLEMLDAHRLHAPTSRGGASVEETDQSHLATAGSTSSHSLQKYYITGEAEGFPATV
Excerpt: as §1

[4] = biological target: T1, human estrogen receptor β (hERβ); conditions: compared with (17β)-estradiol; second value of Erα/Erβ pair
Description: (§2) Compounds are tested for their estrogen receptor activity in a binding assay and in a transactivation assay using the human estrogen receptor α or β.
(§3) Competitive binding to cytoplasmic human estrogen receptor α or β from recombinant Chinese hamster ovary (CHO) cells is used to estimate the relative binding affinity (═RBA) potency ratio) of a test compound as compared with (17β)-estradiol (E2) for estrogen receptors α or β present in the cytosol of recombinant CHO cells, stably transfected with the human estrogen receptor α (hERα) or β receptor (hERβ).

[5] = biological target: T2, human estrogen receptor α (hERα); conditions: compared with (17β)-estradiol; first value of Erα/Erβ pair
Description: as §2, §3

[6] = Allen Doisy test for estrogenic activity in vivo
Description: In vivo estrogenic activity was determined by means of the Allen Doisy test, described in F. Allen, L. A. Doisy, J. Amer. Med. Assoc., 81, 819-821 (1923)

T1 sequence (Q92731 whole entry): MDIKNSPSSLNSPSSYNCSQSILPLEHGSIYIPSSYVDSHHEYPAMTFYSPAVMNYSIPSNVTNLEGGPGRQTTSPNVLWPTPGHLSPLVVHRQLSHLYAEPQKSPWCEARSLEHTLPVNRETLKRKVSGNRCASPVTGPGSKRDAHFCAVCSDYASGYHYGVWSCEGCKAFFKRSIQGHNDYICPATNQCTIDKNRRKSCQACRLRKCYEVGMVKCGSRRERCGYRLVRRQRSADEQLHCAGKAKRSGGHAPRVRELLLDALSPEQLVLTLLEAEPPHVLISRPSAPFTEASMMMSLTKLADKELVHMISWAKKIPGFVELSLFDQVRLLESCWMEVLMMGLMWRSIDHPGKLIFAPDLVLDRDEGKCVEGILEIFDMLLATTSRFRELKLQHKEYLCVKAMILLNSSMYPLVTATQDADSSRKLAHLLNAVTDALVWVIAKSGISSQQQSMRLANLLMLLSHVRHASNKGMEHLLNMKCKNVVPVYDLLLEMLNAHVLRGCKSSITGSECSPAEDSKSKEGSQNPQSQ

For `CCCC1Cc2cc(O)ccc2C2CCC3(C)C(CC4CCCCC43O)C12` (stereo not drawn) [(7α,16β,17α)-7-propyl-16,24-cyclo-19,21-dinorchola-1,3,5(10)-triene-3,17-diol], the “Osteoporosis test, minimal active dose (MAD)” value [1] was 0.19 mg/kg, the “Transactivation Erβ (agonist potency ratio)” value [2] was < 0.1 and the “Transactivation Erα (agonist potency ratio)” value [3] was 0.3. The “Binding-assay Erβ (relative binding affinity, potency ratio)” value [4] was 7, the “Binding-assay Erα (relative binding affinity, potency ratio)” value [5] was 15 and the “Allen Doisy test, active dose” value ([6]; oral) was 0.125 mg/kg. The “Allen Doisy test, active dose” value ([6]; sc) was 0.024 mg/kg.
In the case of `CCC[C@@H]1Cc2cc(O)ccc2C2CC[C@@]3(C)C(C[C@H]4CC[C@H](O)C[C@]43O)C21` (stereo partly drawn) [E, (7α,16β,17 α,22S)-7-propyl-16,24-cyclo-19,21-dinorchola-1,3,5(10)-triene-3,17,22-triol], the “Osteoporosis test, minimal active dose (MAD)” value [1] is reported as 0.03 mg/kg, the “Allen Doisy test, active dose” value ([6]; oral) is reported as 0.03 mg/kg and the “Allen Doisy test, active dose” value ([6]; sc) is reported as 0.005 mg/kg.
